Values quoted from earlier work in patent publication US11529357B2, “Injectable carbamazepine composition essentially free of 10-bromo-carbamazepine” (H. Lundbeck A/S, priority 2019, dated 2022).

- average oral bioavailability: 65-70%
SMILES: NC(=O)N1c2ccccc2C=Cc2ccccc21 [carbamazepine, 5H-dibenzo[b,f]azepine-5-carboxamide]
